We go through 82 compounds from PubChem BioAssay AID651684 (Sanford-Burnham Center for Chemical Genomics, 2012).

Active and inactive are the calls of the source.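 Rule for the calls: active = any single replicate giving an EC50 below 30 µM; inactive = the rest.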

Broadly, the EC50 is the concentration giving half of the maximal effect.

The subject of the assay is Pro5-aDG cells, alpha-DG glycosylation, IIH6 AlphaLISA. The assay is described as follows: alpha-DG glycosylation activators, EC50, dose response, Pro5-aDG cells, AlphaLISA (AID 651684). (In general: In Alpha technology, singlet oxygen from a donor bead excites a nearby acceptor bead.)

On to `Cn1c(=N)n(CC(=O)c2ccc(Br)cc2)c2ccccc21`, for which the EC50 is 42.7 µM (inactive).

As to `CC(C)(C)c1ccc(C(=O)Nc2ccc(C(=O)NCc3cccnc3)cc2)cc1`, the EC50 was 2.48 µM.

In the case of `Brc1ccc2ncnc(NCc3ccccc3)c2c1`, the EC50 was 3.34 µM.

In the case of `c1ccc2c(-c3cc(C4CCNCC4)[nH]n3)cccc2c1`, the EC50 is > 80 µM (inactive). In the case of `O=C1C(Cl)=C(NCc2ccco2)C(=O)c2ccccc21` it was 4.97 µM; in that of `CCc1ccc(C2c3[nH]c4ccccc4c3CCN2C(=O)CN2CCN(CC)CC2)cc1` (configuration not stated), > 80 µM (inactive); in that of `CC(=O)Oc1c(Cl)cc(N(C(C)=O)S(=O)(=O)c2ccccc2)c2ccccc12`, 3.17 µM. The result for `Brc1cccc(-c2nc3c4ccccc4ccn3c2CC2CCCCC2)c1` reads 23.7 µM.

With `CCn1cc(CN2CCC(C(=O)Nc3cccc(-c4cccc(Cl)c4)c3)CC2)c(C)n1`, the EC50 is 6.99 µM.

For the compound `CN1CCN(c2ccc(S(=O)(=O)N3CCCCC3)cc2NC(=O)/C=C/c2ccc(OC(F)F)cc2)CC1`, the EC50 was > 80 µM (inactive). For the compound `Cc1cncn1CCc1nc2c3ccccc3nc(SCC(=O)Nc3cccc(Cl)c3)n2n1`, the EC50 is > 80 µM (inactive). With `N#Cc1ccc(-c2nc3c4ccccc4ccn3c2CC2CCCCC2)cc1`, the EC50 is 7.97 µM. As to `Cc1cccc(CN2CCC(CNC(=O)Nc3ccc(F)c(Cl)c3)CC2)c1`, the 50% effective concentration (EC50) was 8.57 µM. The result for `C/C(=N/NC(=O)C(O)(c1ccccc1)c1ccccc1)c1ccc([N+](=O)[O-])o1` reads 12.7 µM. As to `CCCn1c(=N)n(CC(=O)c2ccc(Cl)cc2)c2ccccc21`, the EC50 was 33.6 µM. Turning to `CN(C)CCCNC(=O)/C=C/c1ccc(OCc2c(F)cccc2Cl)cc1`, the EC50 is 9.37 µM. In the case of `CCn1c(=N)n(CC(=O)c2ccc(Cl)c(Cl)c2)c2ccccc21` it was 32 µM (inactive); in that of `CC(C)COc1ccc(CSCCNC(=S)Nc2ccccc2)cc1`, 6.37 µM; in that of `COc1cc(CNC(=O)Nc2nc(C(N)Cc3ccc(Cl)cc3)cs2)cc(OC)c1OC` (configuration not stated), > 80 µM (inactive).

`COCCN1CCC(CNCc2cn(-c3cc(C)ccc3C)nc2-c2ccccc2)C1` (configuration not stated): the EC50 is > 80 µM (inactive). Turning to `N#Cc1ccsc1NC(=O)c1cccc(-n2cnnn2)c1`, the EC50 is 20.7 µM. As for `CN1CCN(S(=O)(=O)c2cccc(C(=O)Nc3sccc3C#N)c2)CC1`, the 50% effective concentration (EC50) is 37.6 µM. With `CS(=O)(=O)c1ccc(Nc2nc(C(N)Cc3ccc(Cl)cc3)cs2)cc1` (configuration not stated), the EC50 is 8.93 µM.

In the case of `O=C(CNC(=O)c1ccccc1Cl)N/N=C/c1ccc([N+](=O)[O-])s1`, the EC50 was 7.48 µM. The result for `CCOC(=O)N/N=C\c1ccc([N+](=O)[O-])s1` reads 12.3 µM; that for `COCCNc1nc(NCCOc2ccccc2)c2sc(-c3ccccc3)cc2n1`, 7.86 µM. For the compound `CC(C)c1ccc(NC(=O)C2Cc3c(-c4ccc(Cl)cc4)ccnc3O2)cc1` (configuration not stated), the EC50 was 3.98 µM. In the case of `CCCCN(C)CCNC(=O)c1cc(-c2cccnc2)nc2ccc(S(=O)(=O)N3CCC(C)CC3)cc12` it was > 80 µM (inactive).

As to `Cc1cc(C)n(-c2nc(NCCCN(C)C)c3c4c(sc3n2)CCCC4)n1`, the EC50 is 16.1 µM.

With `CCC(C)Nc1nc(-c2c[nH]c3ccccc23)cs1` (configuration not stated), the EC50 is 4.36 µM. On to `Cc1cc(NCc2ccccn2)n2ncc(-c3ccc(Cl)cc3)c2n1`, for which the EC50 was 3.48 µM. With `O=C(Nc1cccc2ccccc12)c1ccc([N+](=O)[O-])s1`, the EC50 was 6.88 µM. Take `CCCCN1CCc2c1nc1ccc(Br)cc1c2N`: the EC50 was > 80 µM (inactive). Regarding `Cc1cccc(/C=C2/Sc3ccc(C(=O)NCCN4CCCC4)cc3NC2=O)c1`, the EC50 was > 80 µM (inactive).

`CC(C)OC(=O)CN1C(=O)C(=O)c2ccccc21`: the concentration for a half-maximal effect (EC50) was 6.56 µM. Turning to `CCOc1ccc(N2CC(C(=O)N3CCN(c4ccccn4)CC3)CC2=O)cc1` (configuration not stated), the EC50 was 11.8 µM. In the case of `CCN(CC)CCn1c(=N)n(CC(=O)c2ccc(C)cc2)c2ccccc21` it was 24.5 µM; in that of `CCCCCOc1ccc(/C(C)=N/NC2=NCCN2)cc1`, 5.81 µM. In the case of `CCCCCOc1ccc(NC(=O)C(=O)NCC2CCCN2CC)cc1` (configuration not stated) it was 8.54 µM; in that of `COc1ccc(CN2CCC(C(=O)Nc3ccc(Oc4cccnc4)cc3)CC2)c(C)c1C`, 8.89 µM.

With `CN(C)CCCNS(=O)(=O)c1ccc(NC2CCCCCC2)c([N+](=O)[O-])c1`, the EC50 is 6.11 µM. As to `CCCCCNCC(=O)Nc1cccc(C(=O)Nc2cccc(C(F)(F)F)c2)c1`, the EC50 is 11.6 µM. With `c1cncc(-c2nnc(-c3cccnc3)nn2)c1`, the EC50 was 8.73 µM.

With `COc1cc(CNCCN(C)C)ccc1OCc1c(F)cccc1Cl`, the EC50 was 18 µM. Regarding `Cc1cc(NC2=CC(=O)C(=O)c3ccccc32)no1`, the EC50 was 6.66 µM. In the case of `CCCn1c(=N)n(CC(=O)c2ccc(Cl)c(Cl)c2)c2ccccc21` it was 31.2 µM (inactive); in that of `N=c1c2c(ncn1CCCO)Oc1c(ccc3ccccc13)C2c1ccccc1` (configuration not stated), > 80 µM (inactive); in that of `N#Cc1ccsc1NC(=O)c1ccc2ncsc2c1`, 42.7 µM. As for `CC(C)n1cc(CN2CCCC(C(=O)Nc3cccc(-c4cc5ccccc5[nH]4)c3)C2)cn1` (configuration not stated), the EC50 was > 80 µM (inactive). With `COc1cc(/C=C/C(=O)Nc2nc3ccc(S(=O)(=O)NC(C)C)cc3s2)cc(OC)c1OC`, the half-maximal effective concentration (EC50) is 9.21 µM. On to `Cc1ccnc(-n2c(C)nc3ccccc3c2=O)c1`, for which the EC50 is > 80 µM (inactive). Consider `CCCC[n+]1ccn(C2=C([O-])c3ccccc3C(=O)/C2=N\S(=O)(=O)c2ccc(Br)cc2)c1`, for which the EC50 is 6.95 µM. In the case of `CC(C)Oc1ccc(OCCCN2CCCCCC2)cc1`, the EC50 was 12.4 µM. For `CN1CCN(c2ncnc3c2ncn3[C@H]2CN(Cc3ccc(-c4ccccc4)cc3)C[C@@H](CO)O2)CC1`, the EC50 is 16.1 µM. In the case of `CCc1nc2ccc(C(=O)NC3CCN(Cc4ccccc4)CC3)cn2c1N(C)Cc1cc2ccccc2s1`, the EC50 is 6.07 µM. With `O=C(Nc1ccccc1F)c1ccc([N+](=O)[O-])s1`, the EC50 is 8.89 µM.

As to `N=c1n(CCN2CCOCC2)c2ccccc2n1CC(=O)c1ccc(Cl)c(Cl)c1`, the EC50 is 47.1 µM (inactive).

As to `Cc1cccc(NC(=S)N(CCCN2CCCC2)Cc2cccn2Cc2ccc(Cl)cc2)c1`, the EC50 is > 80 µM (inactive). Consider `Cc1ccc(NC(=O)c2ccc([N+](=O)[O-])s2)cc1S(=O)(=O)N1CCOCC1`, for which the EC50 is 5.92 µM.

As for `CC1CCCN(CCCNC(=O)c2nn(C)c3c2CSc2ccccc2-3)C1` (configuration not stated), the EC50 was 8.18 µM. As to `CCOc1ccc(NC(=O)c2ccc(F)c(S(=O)(=O)N3CCN(c4ccccn4)CC3)c2)cc1`, the EC50 was > 80 µM (inactive). As for `CC(C)N1CCN(c2ccc(OCC3COC(Cn4cncn4)(c4ccc(Cl)cc4Cl)O3)cc2)CC1` (configuration not stated), the concentration giving a half-maximal response (EC50) is 9.77 µM.

For `COc1ccccc1NC(=O)Nc1nc(C(N)Cc2ccccc2)cs1` (configuration not stated), the EC50 was > 80 µM (inactive). Consider `CC(C)c1ccc(-c2cc(C(=O)N3CCOCC3)c3cc(Br)ccc3n2)cc1`, for which the EC50 was 6.31 µM. For the compound `Cc1nc(SCC(=O)Nc2cc(C(N)=O)cc(C(N)=O)c2)c2c(C)c(C)sc2n1`, the EC50 was 28.5 µM. On to `CCC(c1nnnn1Cc1cccs1)N1CCN(c2nc3ccccc3s2)CC1` (configuration not stated), for which the EC50 was 22.6 µM. For the compound `CC1CCCN(S(=O)(=O)c2ccc(C(=O)Nc3sc4c(c3C(N)=O)CCN(C)C4)cc2)C1` (configuration not stated), the EC50 was 12.3 µM. Regarding `CNc1nc(-c2c[nH]c3ccccc23)cs1`, the concentration giving a half-maximal response (EC50) is 4.99 µM. In the case of `Cc1cc(Br)ccc1OCCCCNC(C)(C)C` it was 12.2 µM; in that of `C=CCn1c(=N)n(CC(=O)c2ccc(Cl)cc2)c2ccccc21`, 41.6 µM (inactive); in that of `O=C1C(=O)N(CCS(=O)(=O)c2ccccc2)c2ccc(F)cc21`, 9.36 µM. Turning to `COc1cc2[nH]c3c(=O)n4c(nc3c2cc1OC)SCCC4`, the EC50 is 6.47 µM. Consider `NC(c1csc(Nc2cc(Oc3ccccc3)ncn2)n1)C1CCCCC1` (configuration not stated), for which the EC50 was 7.32 µM. For the compound `CCc1ccc(C(CNC(=O)c2ccc3c(=O)n(-c4ccccc4F)c(=S)[nH]c3c2)N(C)C)cc1` (configuration not stated), the EC50 is 1.9 µM.

Turning to `CN1N=C(N)c2cn(C3OC(COP(=O)(O)O)C(O)C3O)c3ncnc1c23` (configuration not stated), the EC50 is 35.1 µM (inactive).

Turning to `CCOC(=O)c1cc(-c2ccc(F)cc2)n(CCC(=O)NC2CCN(Cc3ccccc3)CC2)c1C`, the EC50 is > 80 µM (inactive). Turning to `O=C(CNC(=O)c1ccccc1)N/N=C/c1ccc([N+](=O)[O-])s1`, the half-maximal effective concentration (EC50) was 6.46 µM. Regarding `COc1cccc(C(=O)Cn2c(=N)n(C)c3ccccc32)c1`, the EC50 was 58.4 µM (inactive). With `C/C=C/c1ccc(OCCCNC2CCCC2)c(OC)c1`, the EC50 was 11.7 µM. As to `CCOc1ccc(-n2cc(C(=O)N3CCCCCC3)c3cc(OC)c(OC)cc3c2=O)cc1`, the EC50 is 5.6 µM. On to `COc1ccc(Cc2nc(-c3ccc(NC(=O)c4cccnc4)cc3)no2)cc1`, for which the EC50 was 1.52 µM. As to `CC(=O)c1ccc(N2CCN(C(=O)Nc3ccc(C(C)C)cc3)CC2)cc1`, the EC50 was 12.8 µM.
